From patent US20140155371A1, “MULTICOMPONENT CRYSTALLINE SYSTEM OF EZETIMIBE AND PROLINE” (BASF SE, priority 2011, published 2014)

Assays:
[1] = Dynamic (water) vapor sorption (DVS); assay type: physicochemical
Text: Dynamic (water) vapor sorption (DVS) is a method well known in the art to monitor the adsorption of water on a solid material. Therefore, DVS is a suitable method to determine the hygroscopic nature of a pharmaceutical active ingredient.
The crystalline form A described in WO 06/060808 (i.e. the free base) and the present composition (as obtained in example 3 further below) are subjected to a DVS experiment; results are shown in FIG. 4 and in the below Table 1. The crystalline composition is less prone to water uptake under humidity, and is easy to formulate compared to the crystalline anhydrous (“free base”) form of Ezetimibe (see Table 1).
Dynamic (water) vapour sorption (DVS) is performed with a Surface Measurement Systems Ltd. DVS-1 water sorption analyzer or with SPS11-100n moisture sorption instrument from Projekt Meβtechnik, Ulm, Germany.
Program: The relative humidity is kept at starting value of 0% for 5 hours, then continuously scanned from 0% to 60%, kept constant at 60% for 4 hours, and then scanned to 0% relative humidity, and kept constant for 4 hours. The scanning change rate of relative humidity is 5% per hour.

LDL levels = conditions: Ezetimibe added to statin therapy; compared with 6% by doubling the dose of statins; cited from earlier work

**Q.** For `O=C1[C@H](CC[C@H](O)c2ccc(F)cc2)[C@@H](c2ccc(O)cc2)N1c1ccc(F)cc1` [1-(4-Fluorophenyl)-3(R)-[3-(4-fluorophenyl)-3(S)-hydroxypropyl]-4(S)-(4-hydroxyphenyl)azetidin-2-one], which “Water vapor sorption: water content after 4 h at 60% r.h.” value ([1]; after 4 h at 60% r.h.) is on record?
**A.** 4.3%

**Q.** What about the “Water vapor sorption: water content after 10 h at 50% r.h.” value ([1]; after 10 h at 50% r.h.) of the same compound?
**A.** 4.0%

**Q.** And the water uptake ([1]; at 60% relative humidity, FIG. 4)?
**A.** about 4.3%

**Q.** What about the “relative humidity at which hydrate formation starts” value ([1]; increasing ambient humidity, FIG. 4 dashed line) of the same compound?
**A.** about 50%

**Q.** For `O=C1[C@H](CC[C@H](O)c2ccc(F)cc2)[C@@H](c2ccc(O)cc2)N1c1ccc(F)cc1` [Ezetimibe, 1-(4-Fluorophenyl)-3(R)-[3-(4-fluorophenyl)-3(S)-hydroxypropyl]-4(S)-(4-hydroxyphenyl)azetidin-2-one], which “reduction in LDL levels” value (LDL levels) is on record?
**A.** 15%

**Q.** Which “relative humidity below which the hydrate begins to lose water” value ([1]; decreasing humidity, FIG. 4) does the source give for `O=C1[C@H](CC[C@H](O)c2ccc(F)cc2)[C@@H](c2ccc(O)cc2)N1c1ccc(F)cc1` [hydrate form] here?
**A.** about 25%
